Two molecules from US20070117770A1, “Human ribosomal DNA (rDNA) and ribosomal RNA (rRNA) nucleic acids and uses thereof” (Cylene Pharmaceuticals, Inc., priority 2005, published 2007) can be followed below.

What all share (assay): Protein kinase inhibition assay
Format in all cases: biochemical

One experiment deals with MINK(h) (Homo sapiens, UniProt Q8N4C8). Conditions: read-out: percent residual activity of MINK(h). The method, then: (§1) Certain compounds were tested for activity in protein kinase inhibition assays. All substrates were dissolved and diluted to working stocks in de-ionized water, apart from histone H1 (10× working stock in 20 mM MOPS pH 7.0), PDKtide (10× working stock in 50 mM Tris pH 7.0) ATF2 (which is typically stored at a 20× working stock in 50 mM Tris pH 7.5, 150 mM NaCl, 0.1 mM EGTA, 0.03% Brij-35, 50% glycerol, 1 mM benzamidine, 0.2 mM PMSF and 0.1% R-mercaptoethanol), KKLNRTLSFAEPG (SEQ ID NO:203) and RRRLSFAEPG (SEQ ID NO:204) (50 mM HEPES pH 7.4) and GGEEEEYFELVKKKK (SEQ ID NO:205) (20 mM MOPS pH 7.0). All kinases were pre-diluted to a 10× working concentration prior to addition into the assay. The composition of the dilution buffer for each kinase is detailed below.
(§2) In a final reaction volume of 25 μl, MINK (h) (5-10 mU) is incubated with 8 mM MOPS pH 7.0, 0.2 mM EDTA, 0.33 mg/ml myelin basic protein, 10 mM MgAcetate and [gamma-33P-ATP] (specific activity approx. 500 cpm/pmol, concentration as required). The reaction is initiated by the addition of the MgATP mix. After incubation for 40 minutes at room temperature, the reaction is stopped by the addition of 5 μl of a 3% phosphoric acid solution. 10 μl of the reaction is then spotted onto a P30 filtermat and washed three times for 5 minutes in 75 mM phosphoric acid and once in methanol prior to drying and scintillation counting.

Another experiment has as its target Fgr(h) (Homo sapiens, UniProt P09769). Conditions: read-out: percent residual activity of Fgr(h). The method, then:
as §1
as §2, with “Fgr” for “MINK”, “0.1” for “0.33”, “poly(Glu, Tyr) 4:1,” for “myelin basic protein,”, “Filtermat A” for “P30 filtermat”

The target of the next experiment is MAPKAP-K2(h) (Homo sapiens, UniProt P49137). Conditions: read-out: percent residual activity of MAPKAP-K2(h). The method, then:
as §1
In a final reaction volume of 25 μl, MAPKAP-K2 (h) (5-10 mU) is incubated with 50 mM Na R-glycerophosphate pH 7.5, 0.1 mM EGTA, 30 μM KKLNRTLSVA (SEQ ID NO:212), 10 mM MgAcetate and [gamma-33P-ATP] (specific activity approx. 500 cpm/pmol, concentration as required). The reaction is initiated by the addition of the MgATP mix. After incubation for 40 minutes at room temperature, the reaction is stopped by the addition of 5 μl of a 3% phosphoric acid solution. […]

The target in another experiment is MKK6(h) (Homo sapiens, UniProt P52564). Conditions: read-out: percent residual activity of MKK6(h). On the procedure: as §1
The reaction is initiated by the addition of the MgATP. After incubation for 40 minutes at room temperature, 5 μl of this incubation mix is used to initiate a SAPK2a (h) assay, which is described on page 18 of this book.

The next experiment has as its target TrkA(h) (Homo sapiens, UniProt P04629). Conditions: read-out: percent residual activity of TrkA(h). On the procedure: as §1
as §2, with “TrkA” for “MINK”, “250 μM KKKSPGEYVNIEFG (SEQ ID NO:207),” for “0.33 mg/ml myelin basic protein,”

For the next experiment, the target named is EGFR(L858R)(h) (Homo sapiens, UniProt P00533, L858R). Conditions: read-out: percent residual activity of EGFR(L858R)(h). On the procedure: as §1
as §2, with “EGFR (L858R)” for “MINK”, “0.1” for “0.33”, “poly(Glu, Tyr) 4:1,” for “myelin basic protein,”, “Filtermat A” for “P30 filtermat”

For another experiment, the target named is JNK1α1(h) (Homo sapiens, UniProt P45983). Conditions: read-out: percent residual activity of JNK1α1(h). On the procedure: as §1
as §2, with “JNK1α” for “MINK”, “50” for “8”, “Tris” for “MOPS”, “7.5, 0.1” for “7.0, 0.2”, “EGTA, 0.1% R-mercaptoethanol, 3 μM ATF2,” for “EDTA, 0.33 mg/ml myelin basic protein,”

TrkA(h), sequence (P04629 33-796): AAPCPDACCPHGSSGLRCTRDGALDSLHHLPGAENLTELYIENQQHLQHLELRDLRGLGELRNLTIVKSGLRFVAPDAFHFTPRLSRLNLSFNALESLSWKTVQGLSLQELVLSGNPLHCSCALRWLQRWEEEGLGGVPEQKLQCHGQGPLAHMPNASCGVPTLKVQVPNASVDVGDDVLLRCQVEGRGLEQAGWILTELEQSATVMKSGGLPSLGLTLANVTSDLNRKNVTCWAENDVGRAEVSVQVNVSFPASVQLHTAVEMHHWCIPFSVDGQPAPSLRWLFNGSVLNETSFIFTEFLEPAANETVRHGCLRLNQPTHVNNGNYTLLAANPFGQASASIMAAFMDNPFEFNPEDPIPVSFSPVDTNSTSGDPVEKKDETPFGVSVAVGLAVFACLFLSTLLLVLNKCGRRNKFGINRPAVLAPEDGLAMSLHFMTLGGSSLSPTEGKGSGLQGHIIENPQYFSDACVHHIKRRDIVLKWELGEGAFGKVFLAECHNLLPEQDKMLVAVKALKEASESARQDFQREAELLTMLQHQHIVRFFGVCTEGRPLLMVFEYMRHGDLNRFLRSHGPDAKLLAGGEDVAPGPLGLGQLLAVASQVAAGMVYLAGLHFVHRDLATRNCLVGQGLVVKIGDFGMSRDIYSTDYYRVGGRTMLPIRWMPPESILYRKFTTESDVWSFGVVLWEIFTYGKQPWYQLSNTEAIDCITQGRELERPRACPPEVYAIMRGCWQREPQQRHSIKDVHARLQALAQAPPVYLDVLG
MAPKAP-K2(h), sequence (P49137 whole entry): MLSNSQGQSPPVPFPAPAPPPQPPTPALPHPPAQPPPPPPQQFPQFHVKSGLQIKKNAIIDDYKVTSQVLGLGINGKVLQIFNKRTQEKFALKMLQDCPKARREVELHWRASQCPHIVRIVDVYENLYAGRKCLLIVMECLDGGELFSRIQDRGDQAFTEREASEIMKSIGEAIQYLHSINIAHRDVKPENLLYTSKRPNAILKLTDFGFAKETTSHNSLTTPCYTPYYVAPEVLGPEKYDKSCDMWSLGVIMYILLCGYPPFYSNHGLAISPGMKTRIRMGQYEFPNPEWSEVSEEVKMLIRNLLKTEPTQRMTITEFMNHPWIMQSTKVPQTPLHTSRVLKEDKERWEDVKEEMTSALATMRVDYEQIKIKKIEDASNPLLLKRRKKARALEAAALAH
EGFR(L858R)(h), sequence (P00533 25-1210 L858R): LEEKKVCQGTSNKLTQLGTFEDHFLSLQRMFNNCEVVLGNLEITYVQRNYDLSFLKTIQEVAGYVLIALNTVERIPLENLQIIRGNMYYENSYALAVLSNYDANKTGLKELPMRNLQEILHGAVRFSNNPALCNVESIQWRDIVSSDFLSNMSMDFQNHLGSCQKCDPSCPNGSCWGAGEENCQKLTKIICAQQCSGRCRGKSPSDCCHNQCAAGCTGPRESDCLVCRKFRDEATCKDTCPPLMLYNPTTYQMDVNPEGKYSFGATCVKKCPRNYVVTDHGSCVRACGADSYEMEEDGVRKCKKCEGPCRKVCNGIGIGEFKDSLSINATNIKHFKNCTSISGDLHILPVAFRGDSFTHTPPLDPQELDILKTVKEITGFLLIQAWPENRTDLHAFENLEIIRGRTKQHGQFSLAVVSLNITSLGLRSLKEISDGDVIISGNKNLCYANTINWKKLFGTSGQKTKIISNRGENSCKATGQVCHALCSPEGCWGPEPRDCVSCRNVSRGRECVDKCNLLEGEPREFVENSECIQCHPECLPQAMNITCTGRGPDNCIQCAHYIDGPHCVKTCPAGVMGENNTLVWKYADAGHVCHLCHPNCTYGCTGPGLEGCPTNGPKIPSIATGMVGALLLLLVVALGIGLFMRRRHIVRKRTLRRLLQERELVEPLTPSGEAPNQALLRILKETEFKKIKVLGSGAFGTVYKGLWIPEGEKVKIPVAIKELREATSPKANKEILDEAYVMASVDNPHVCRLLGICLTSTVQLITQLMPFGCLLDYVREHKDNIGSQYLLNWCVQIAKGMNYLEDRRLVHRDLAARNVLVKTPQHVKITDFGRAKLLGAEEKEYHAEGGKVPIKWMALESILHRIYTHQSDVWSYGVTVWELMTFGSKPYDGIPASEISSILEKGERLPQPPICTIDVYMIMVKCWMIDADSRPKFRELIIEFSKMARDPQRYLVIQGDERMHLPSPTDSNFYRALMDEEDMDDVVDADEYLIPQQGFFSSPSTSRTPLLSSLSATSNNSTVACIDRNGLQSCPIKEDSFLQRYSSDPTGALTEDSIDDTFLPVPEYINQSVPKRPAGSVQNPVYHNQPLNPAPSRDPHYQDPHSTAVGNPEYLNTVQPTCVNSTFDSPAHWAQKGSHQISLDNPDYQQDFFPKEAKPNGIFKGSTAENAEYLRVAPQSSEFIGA
JNK1α1(h), sequence (P45983 1-384 isoform P45983-2): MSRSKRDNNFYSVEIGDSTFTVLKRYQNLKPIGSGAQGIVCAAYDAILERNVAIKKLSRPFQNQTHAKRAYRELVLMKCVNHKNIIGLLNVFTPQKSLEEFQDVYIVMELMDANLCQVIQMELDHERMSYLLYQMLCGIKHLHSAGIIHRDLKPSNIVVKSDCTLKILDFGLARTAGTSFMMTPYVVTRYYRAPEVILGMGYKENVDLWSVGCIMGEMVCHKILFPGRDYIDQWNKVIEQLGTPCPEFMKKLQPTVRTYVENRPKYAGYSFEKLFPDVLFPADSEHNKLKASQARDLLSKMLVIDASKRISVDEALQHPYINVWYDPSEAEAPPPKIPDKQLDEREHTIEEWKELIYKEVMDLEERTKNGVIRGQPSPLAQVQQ
Fgr(h), sequence (P09769 whole entry): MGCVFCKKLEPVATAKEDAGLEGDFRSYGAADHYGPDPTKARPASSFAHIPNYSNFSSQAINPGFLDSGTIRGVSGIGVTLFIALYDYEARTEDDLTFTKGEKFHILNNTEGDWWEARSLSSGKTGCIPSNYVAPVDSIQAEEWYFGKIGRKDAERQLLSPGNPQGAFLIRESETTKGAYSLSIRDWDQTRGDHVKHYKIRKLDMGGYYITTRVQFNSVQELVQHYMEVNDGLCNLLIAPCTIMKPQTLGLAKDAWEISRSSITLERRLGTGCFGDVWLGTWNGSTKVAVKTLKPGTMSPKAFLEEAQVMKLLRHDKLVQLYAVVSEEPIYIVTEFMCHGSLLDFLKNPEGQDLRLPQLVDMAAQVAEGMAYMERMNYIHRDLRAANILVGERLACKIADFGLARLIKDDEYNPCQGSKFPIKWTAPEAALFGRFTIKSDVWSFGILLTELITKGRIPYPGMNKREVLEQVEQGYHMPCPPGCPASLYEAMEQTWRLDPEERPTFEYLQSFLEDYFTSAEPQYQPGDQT
MKK6(h), sequence (P52564 whole entry): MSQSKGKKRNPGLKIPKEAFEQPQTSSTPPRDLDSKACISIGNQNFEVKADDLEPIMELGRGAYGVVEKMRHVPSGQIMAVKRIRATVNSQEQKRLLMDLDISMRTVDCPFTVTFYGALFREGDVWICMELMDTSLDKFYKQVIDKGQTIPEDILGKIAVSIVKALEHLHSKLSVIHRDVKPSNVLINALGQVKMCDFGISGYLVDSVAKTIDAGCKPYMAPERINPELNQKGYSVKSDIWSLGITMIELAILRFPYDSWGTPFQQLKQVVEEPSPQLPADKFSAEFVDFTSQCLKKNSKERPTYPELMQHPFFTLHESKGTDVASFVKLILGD
MINK(h), sequence (Q8N4C8 whole entry): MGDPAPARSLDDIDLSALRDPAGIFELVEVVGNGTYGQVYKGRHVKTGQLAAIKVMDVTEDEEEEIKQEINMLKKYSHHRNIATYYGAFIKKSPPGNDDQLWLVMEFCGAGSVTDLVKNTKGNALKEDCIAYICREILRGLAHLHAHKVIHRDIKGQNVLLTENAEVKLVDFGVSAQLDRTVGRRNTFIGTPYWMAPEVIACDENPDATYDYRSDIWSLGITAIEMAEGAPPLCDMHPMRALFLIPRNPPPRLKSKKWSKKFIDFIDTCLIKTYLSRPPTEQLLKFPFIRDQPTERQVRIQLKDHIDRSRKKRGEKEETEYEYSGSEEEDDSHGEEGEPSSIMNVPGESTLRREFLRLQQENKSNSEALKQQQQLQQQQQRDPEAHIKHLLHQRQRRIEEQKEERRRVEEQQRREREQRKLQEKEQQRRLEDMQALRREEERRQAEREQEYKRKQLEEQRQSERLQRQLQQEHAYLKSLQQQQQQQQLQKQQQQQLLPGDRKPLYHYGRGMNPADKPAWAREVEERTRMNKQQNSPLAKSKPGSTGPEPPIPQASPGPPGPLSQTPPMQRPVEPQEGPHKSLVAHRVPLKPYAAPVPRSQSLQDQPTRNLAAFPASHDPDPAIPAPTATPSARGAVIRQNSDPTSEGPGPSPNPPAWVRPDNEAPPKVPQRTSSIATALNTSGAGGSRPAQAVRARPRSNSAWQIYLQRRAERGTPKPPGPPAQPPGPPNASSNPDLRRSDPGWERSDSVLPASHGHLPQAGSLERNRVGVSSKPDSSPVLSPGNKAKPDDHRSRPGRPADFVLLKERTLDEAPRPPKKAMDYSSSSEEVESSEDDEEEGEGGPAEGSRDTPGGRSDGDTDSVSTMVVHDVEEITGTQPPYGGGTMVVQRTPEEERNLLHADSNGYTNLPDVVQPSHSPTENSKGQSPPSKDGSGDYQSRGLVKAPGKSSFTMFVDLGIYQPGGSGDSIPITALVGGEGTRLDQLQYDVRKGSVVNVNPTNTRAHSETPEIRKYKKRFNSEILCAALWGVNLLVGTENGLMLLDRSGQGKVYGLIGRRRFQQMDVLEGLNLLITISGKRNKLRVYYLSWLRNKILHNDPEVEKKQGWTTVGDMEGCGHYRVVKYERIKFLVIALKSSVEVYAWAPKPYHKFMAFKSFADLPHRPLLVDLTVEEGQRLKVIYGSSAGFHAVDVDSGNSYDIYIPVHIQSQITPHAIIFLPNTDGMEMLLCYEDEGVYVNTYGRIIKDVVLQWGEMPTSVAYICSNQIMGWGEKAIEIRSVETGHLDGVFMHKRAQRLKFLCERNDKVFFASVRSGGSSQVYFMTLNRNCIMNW

`CN1CCCC1CCNC(=O)c1cn2c3c(c(N4CCC(c5cnccn5)C4)c(F)cc3c1=O)Oc1cc3ccccc3cc1-2` (centres unmarked) [Compound A-1]: the remaining activity at 2.5 µM at MINK(h) came to 72%; on Fgr(h), 78%; on MAPKAP-K2(h) it was 79%; on MKK6(h) it was 100%; at TrkA(h) it was 25%; on EGFR(L858R)(h) it was 113%. In addition, the remaining activity at 2.5 µM on JNK1α1(h) amounted to 94%.
Consider `CC(=O)N1CCN(c2ccc3c(=O)c(C(=O)NCCN4CCCC4)c4n(C)c5ccccc5n4c3n2)CC1` [Compound B-1], for which the remaining activity at 2.5 µM worked out at 97% at MINK(h); 98% on Fgr(h); 99% on MAPKAP-K2(h); 90% at MKK6(h); 80% on TrkA(h); 109% at EGFR(L858R)(h). At JNK1α1(h), the remaining activity at 2.5 µM stood at 100%.
